Experiments:
ITK = ITK (Homo sapiens, UniProt Q08881); assay: Kinase selectivity profiling, IL2-inducible T-cell kinase; format: biochemical; settings: read-out: Percentage inhibition of ITK
Description: (§1) The selectivity of compounds against a panel of 50 human protein kinases was assessed using a non-radiometric assay.

HCT116 cells [1] = assay: Cell cycle analysis by flow cytometry; format: cell-based, human; settings: HCT116, 3 μM
Description: Cells were dissociated with Accutase, fixed with 70% EtOH at −20 °C, stained with Guava Cell Cycle reagent (Merck-Millipore) in accordance with the manufacturer's instructions, and analysed using a Guava easy Cyte HT flow cytometer (Merck-Millipore). Cell doublets were eliminated by doublet discrimination gating. Data were analyzed using FLOWJO version 10 software (Treestar; Fig. 3e). Experiments were performed in triplicate and repeated at least two times.

SRC = SRC (Homo sapiens, UniProt P12931); assay: Kinase selectivity profiling, v-Src sarcoma viral oncogene homolog; format: biochemical; settings: read-out: Percentage inhibition of SRC
Description: as §1

PYK2 = PYK2 (Homo sapiens, UniProt Q14289); assay: Kinase selectivity profiling, Proline-rich tyrosine kinase 2; format: biochemical; settings: read-out: Percentage inhibition of PYK2
PYK2, sequence (Q14289 whole entry): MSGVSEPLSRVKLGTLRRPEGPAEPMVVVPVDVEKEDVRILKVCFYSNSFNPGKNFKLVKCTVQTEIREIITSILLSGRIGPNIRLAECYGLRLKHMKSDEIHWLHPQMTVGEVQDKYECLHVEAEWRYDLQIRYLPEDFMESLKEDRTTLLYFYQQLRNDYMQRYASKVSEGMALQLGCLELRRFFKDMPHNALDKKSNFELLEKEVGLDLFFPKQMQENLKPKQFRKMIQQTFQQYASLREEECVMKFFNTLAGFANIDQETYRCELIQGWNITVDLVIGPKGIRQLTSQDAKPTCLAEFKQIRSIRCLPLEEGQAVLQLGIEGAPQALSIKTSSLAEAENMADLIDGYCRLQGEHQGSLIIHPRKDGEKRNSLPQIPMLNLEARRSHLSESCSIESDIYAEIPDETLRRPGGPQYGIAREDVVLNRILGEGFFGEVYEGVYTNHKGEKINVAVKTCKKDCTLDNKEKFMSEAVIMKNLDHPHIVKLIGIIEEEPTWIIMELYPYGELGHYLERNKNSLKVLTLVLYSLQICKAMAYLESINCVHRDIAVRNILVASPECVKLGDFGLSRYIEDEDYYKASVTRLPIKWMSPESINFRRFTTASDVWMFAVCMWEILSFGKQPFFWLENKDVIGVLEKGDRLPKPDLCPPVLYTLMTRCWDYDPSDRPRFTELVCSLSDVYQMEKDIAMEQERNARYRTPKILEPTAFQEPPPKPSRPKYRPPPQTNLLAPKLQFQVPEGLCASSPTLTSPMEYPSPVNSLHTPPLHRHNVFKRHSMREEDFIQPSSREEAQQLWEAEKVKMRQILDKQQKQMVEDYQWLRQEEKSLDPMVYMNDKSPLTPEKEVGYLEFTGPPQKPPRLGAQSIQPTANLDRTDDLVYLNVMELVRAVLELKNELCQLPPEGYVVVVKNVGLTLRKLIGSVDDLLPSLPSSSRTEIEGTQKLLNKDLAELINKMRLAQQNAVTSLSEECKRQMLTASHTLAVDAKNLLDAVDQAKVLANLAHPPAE
Description: as §1

DLD-1 cells [2] = assay: Limiting dilution analysis of sphere formation, DLD-1; format: cell-based, human
Description: (§2) One million HCT116 and DLD-1 cells were seeded onto 60-mm plates and treated with vehicle (DMSO) or compounds (0.1, 0.3 or 1.0 μM) for either 3 or 4 days. After washing off the compounds, the cells were dissociated to single cells in serum-free DMEM/F12 medium (Thermo Fisher Scientific) containing B27 (Thermo Fisher Scientific), 20 ng ml^−1 epidermal growth factor (EGF; Thermo Fisher Scientific), 10 ng ml^−1 basic fibroblast factor (bFGF; Thermo Fisher Scientific), 5 μg ml^−1 insulin (Thermo Fisher Scientific), 0.4% bovine serum albumin (Sigma-Aldrich) and 2 mM L-glutamine (Thermo Fisher Scientific). One hundred, 10 or 1 viable (determined by trypan-blue dye exclusion) cells were seeded into each well of a 96-well U-bottom PrimeSurface plate (Sumitomo Bakelite). Ten days later, the number of wells showing sphere formation was counted. The frequency of sphere-forming cells was calculated using ELDA software (http://bioinf.wehi.edu.au/software/elda/index.html) provided by the Walter and Eliza Hall Institute (Fig. 5c; Supplementary Table 2). Experiments were performed in triplicate and repeated at least two times.

CDK2/CycA2 = CDK2/CycA2 (Homo sapiens, UniProt P24941); assay: Kinase selectivity profiling, Cyclin-dependent kinase 2/cyclin A2; format: biochemical; settings: 0.1 µM inhibitor, ATP at Km; read-out: Percentage inhibition of CDK2/CycA2
Description: as §1

TYRO3 = TYRO3 (Homo sapiens, UniProt Q06418); assay: Kinase selectivity profiling, Tyro3 receptor tyrosine kinase; format: biochemical; settings: read-out: Percentage inhibition of TYRO3
Description: as §1

PKCα = PKCα (Homo sapiens, UniProt P17252); assay: Kinase selectivity profiling, Protein kinase C-α; format: biochemical; settings: read-out: Percentage inhibition of PKCα
Description: as §1

DYRK1B = DYRK1B (Homo sapiens, UniProt Q9Y463); assay: Kinase selectivity profiling, Dual-specificity tyrosine-phosphorylation regulated kinase 1B; format: biochemical; settings: read-out: Percentage inhibition of DYRK1B
DYRK1B, sequence (Q9Y463 whole entry): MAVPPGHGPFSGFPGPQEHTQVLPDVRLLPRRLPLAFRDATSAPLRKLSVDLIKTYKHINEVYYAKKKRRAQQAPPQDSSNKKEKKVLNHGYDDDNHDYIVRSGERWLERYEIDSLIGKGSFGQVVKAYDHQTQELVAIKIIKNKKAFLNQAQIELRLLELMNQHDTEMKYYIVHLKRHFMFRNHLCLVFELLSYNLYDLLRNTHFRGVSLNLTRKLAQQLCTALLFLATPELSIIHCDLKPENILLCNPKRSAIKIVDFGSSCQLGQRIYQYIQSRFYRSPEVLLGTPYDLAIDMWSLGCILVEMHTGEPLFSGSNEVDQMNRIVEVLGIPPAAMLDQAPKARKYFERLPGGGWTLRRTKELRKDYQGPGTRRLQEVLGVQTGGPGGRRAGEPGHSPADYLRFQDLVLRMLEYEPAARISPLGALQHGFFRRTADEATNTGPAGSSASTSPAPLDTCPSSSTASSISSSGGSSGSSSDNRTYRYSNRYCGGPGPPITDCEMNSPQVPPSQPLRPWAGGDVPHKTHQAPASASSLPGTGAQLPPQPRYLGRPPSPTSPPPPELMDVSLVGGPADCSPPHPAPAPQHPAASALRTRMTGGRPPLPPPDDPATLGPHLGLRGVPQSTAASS
Description: as §1

HCT116 cells [3] = assay: Limiting dilution analysis of sphere formation, HCT116; format: cell-based, human
Description: as §2

DLD-1 cells [4] = assay: In vivo tumorigenicity of pretreated DLD-1 cells in NOD/ShiJic-scid mice; parameters: species or system mouse; settings: DLD-1, short-term in vitro treatment
Description: After washing off the compounds, 10,000, 1,000, 100 or 10 viable cells in culture medium containing 50% Matrigel (BD Biosciences) were injected subcutaneously into the flanks of NOD/ShiJic-scid Jcl (6-week-old male) mice. The number of mice that developed tumours was counted, and the frequency of cells with tumour-forming capability was calculated using the ELDA software.

ABL = ABL (Homo sapiens, UniProt P00519); assay: Kinase selectivity profiling, c-Abl oncogene 1; format: biochemical; settings: read-out: Percentage inhibition of ABL
Description: as §1

p70S6K = p70S6K (Homo sapiens, UniProt P23443); assay: Kinase selectivity profiling, Ribosomal protein S6 kinase; format: biochemical; settings: read-out: Percentage inhibition of p70S6K
p70S6K, sequence (P23443 whole entry): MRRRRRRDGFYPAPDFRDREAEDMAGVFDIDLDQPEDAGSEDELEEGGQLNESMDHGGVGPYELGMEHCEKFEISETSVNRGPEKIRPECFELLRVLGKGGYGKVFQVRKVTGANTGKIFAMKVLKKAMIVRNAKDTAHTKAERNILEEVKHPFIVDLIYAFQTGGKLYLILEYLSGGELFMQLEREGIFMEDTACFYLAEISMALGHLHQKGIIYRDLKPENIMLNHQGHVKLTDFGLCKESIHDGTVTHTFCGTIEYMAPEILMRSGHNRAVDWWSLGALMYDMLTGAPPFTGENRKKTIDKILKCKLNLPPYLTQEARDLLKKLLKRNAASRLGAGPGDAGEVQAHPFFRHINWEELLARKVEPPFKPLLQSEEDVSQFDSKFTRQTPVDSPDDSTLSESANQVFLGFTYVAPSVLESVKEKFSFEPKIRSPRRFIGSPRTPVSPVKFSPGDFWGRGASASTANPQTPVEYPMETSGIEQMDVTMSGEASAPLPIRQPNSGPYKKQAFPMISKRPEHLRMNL
Description: as §1

FLT3 = FLT3 (Homo sapiens, UniProt P36888); assay: Kinase selectivity profiling, Fms-related tyrosine kinase 3; format: biochemical; settings: 0.1 µM inhibitor, ATP at Km; read-out: Percentage inhibition of FLT3
FLT3, sequence (P36888 27-993): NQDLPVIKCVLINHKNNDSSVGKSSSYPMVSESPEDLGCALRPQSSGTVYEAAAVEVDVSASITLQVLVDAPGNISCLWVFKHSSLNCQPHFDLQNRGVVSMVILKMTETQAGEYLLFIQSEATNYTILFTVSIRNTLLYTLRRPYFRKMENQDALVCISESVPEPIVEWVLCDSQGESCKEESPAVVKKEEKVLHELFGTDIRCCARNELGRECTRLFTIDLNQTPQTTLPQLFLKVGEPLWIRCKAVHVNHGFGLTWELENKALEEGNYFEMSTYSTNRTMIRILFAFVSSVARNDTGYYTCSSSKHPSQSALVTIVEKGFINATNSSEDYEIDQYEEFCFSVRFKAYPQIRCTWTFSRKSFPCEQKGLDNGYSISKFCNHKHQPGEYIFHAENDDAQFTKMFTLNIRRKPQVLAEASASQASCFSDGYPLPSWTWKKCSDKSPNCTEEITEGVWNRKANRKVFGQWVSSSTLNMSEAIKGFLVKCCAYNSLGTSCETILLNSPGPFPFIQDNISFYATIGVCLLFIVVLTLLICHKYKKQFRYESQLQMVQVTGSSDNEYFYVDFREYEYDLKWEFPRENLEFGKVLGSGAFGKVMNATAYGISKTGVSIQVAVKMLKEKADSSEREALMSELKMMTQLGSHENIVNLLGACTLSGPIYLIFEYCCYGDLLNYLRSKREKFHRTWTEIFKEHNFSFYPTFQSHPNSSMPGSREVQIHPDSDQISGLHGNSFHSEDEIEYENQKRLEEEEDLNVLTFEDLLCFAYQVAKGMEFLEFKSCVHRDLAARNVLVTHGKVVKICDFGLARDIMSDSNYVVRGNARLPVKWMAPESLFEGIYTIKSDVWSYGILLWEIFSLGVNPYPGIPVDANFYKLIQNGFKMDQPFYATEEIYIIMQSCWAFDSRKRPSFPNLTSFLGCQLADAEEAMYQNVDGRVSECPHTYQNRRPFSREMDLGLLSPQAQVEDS
Description: as §1

CaMK4 = CaMK4 (Homo sapiens, UniProt Q16566); assay: Kinase selectivity profiling, Calcium/calmodulin-dependent protein kinase IV; format: biochemical; settings: read-out: Percentage inhibition of CaMK4
CaMK4, sequence (Q16566 whole entry): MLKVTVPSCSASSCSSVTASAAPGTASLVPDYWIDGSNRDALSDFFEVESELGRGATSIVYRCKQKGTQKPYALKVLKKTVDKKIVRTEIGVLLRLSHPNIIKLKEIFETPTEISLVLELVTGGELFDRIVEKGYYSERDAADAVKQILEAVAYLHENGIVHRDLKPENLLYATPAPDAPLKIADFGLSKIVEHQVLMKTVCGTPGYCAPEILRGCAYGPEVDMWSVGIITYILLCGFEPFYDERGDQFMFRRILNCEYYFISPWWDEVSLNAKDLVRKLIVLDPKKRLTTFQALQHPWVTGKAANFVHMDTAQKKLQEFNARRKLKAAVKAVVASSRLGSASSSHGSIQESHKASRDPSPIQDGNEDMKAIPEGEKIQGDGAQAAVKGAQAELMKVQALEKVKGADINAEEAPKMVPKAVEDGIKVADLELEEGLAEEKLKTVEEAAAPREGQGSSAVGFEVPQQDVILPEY
Description: as §1

IGF1R = IGF1R (Homo sapiens, UniProt P08069); assay: Kinase selectivity profiling, Insulin-like growth factor 1 receptor; format: biochemical; settings: read-out: Percentage inhibition of IGF1R
Description: as §1

IRAK4 = IRAK4 (Homo sapiens, UniProt Q9NWZ3); assay: Kinase selectivity profiling, Interleukin 1 receptor-associated kinase 4; format: biochemical; settings: read-out: Percentage inhibition of IRAK4
Description: as §1

ITK, sequence (Q08881 whole entry): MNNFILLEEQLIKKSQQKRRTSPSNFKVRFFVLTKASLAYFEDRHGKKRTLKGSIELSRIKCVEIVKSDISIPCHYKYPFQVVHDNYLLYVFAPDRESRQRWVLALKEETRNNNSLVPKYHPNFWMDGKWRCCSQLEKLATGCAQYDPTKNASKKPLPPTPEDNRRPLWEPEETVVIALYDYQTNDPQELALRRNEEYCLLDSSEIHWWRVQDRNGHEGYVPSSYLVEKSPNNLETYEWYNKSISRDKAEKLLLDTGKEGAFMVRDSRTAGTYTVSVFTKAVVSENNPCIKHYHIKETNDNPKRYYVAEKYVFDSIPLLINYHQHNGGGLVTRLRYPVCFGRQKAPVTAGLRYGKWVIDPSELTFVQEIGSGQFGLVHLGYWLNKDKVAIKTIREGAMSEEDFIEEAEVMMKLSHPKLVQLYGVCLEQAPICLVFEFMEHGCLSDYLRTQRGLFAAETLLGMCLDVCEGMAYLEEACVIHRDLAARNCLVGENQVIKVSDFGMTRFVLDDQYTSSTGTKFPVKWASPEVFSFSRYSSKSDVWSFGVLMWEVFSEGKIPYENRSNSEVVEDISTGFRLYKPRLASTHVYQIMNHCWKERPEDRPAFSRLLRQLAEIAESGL

- inhibition at 0.1 µM (ITK): 9%
- inhibition at 0.1 µM (SRC): 14.4%
- inhibition at 0.1 µM (PYK2): 23.6%
- inhibition at 0.1 µM (CDK2/CycA2): 93%
- inhibition at 0.1 µM (TYRO3): 23.9%
- inhibition at 0.1 µM (PKCα): 1.4%
- inhibition at 0.1 µM (DYRK1B): -2.4%
- inhibition at 0.1 µM (ABL): 3.9%
- inhibition at 0.1 µM (p70S6K): 11.4%
- inhibition at 0.1 µM (FLT3): 102%
- inhibition at 0.1 µM (CaMK4): -4.1%
- inhibition at 0.1 µM (IGF1R): 1.2%
- inhibition at 0.1 µM (IRAK4): 6.3%
Compound: O[C@H]1CC[C@H](Oc2cccc3cnc(Nc4ccc5nc[nH]c5c4)nc23)CC1 [NCB-0970]
- >4N (%) (HCT116 cells [1]; 24 h): 9.1%
- G0/G1 (%) (HCT116 cells [1]; 24 h): 24.5%
- G2/M (%) (HCT116 cells [1]; 24 h): 35.8%
- S (%) (HCT116 cells [1]; 24 h): 10.7%
- SubG1 (%) (HCT116 cells [1]; 24 h): 20%
- >4N (%) (HCT116 cells [1]; 48 h): 8.5%
- G0/G1 (%) (HCT116 cells [1]; 48 h): 21%
- G2/M (%) (HCT116 cells [1]; 48 h): 40.3%
- S (%) (HCT116 cells [1]; 48 h): 10.7%
- SubG1 (%) (HCT116 cells [1]; 48 h): 19.5%
- Sphere-containing wells/total wells (DLD-1 cells [2]; DLD-1, 3-day treatment, 0.1 μM, 1 cell per well): 40/96
- Sphere-containing wells/total wells (DLD-1 cells [2]; DLD-1, 3-day treatment, 0.1 μM, 10 cells per well): 96/96
- Sphere-containing wells/total wells (DLD-1 cells [2]; DLD-1, 3-day treatment, 0.1 μM, 100 cells per well): 96/96
- Sphere-containing wells/total wells (DLD-1 cells [2]; DLD-1, 3-day treatment, 0.3 μM, 1 cell per well): 51/96
- Sphere-containing wells/total wells (DLD-1 cells [2]; DLD-1, 3-day treatment, 0.3 μM, 10 cells per well): 95/96
- Sphere-containing wells/total wells (DLD-1 cells [2]; DLD-1, 3-day treatment, 0.3 μM, 100 cells per well): 96/96
- Sphere-containing wells/total wells (DLD-1 cells [2]; DLD-1, 3-day treatment, 1.0 μM, 1 cell per well): 16/96
- Sphere-containing wells/total wells (DLD-1 cells [2]; DLD-1, 3-day treatment, 1.0 μM, 10 cells per well): 75/96
- Sphere-containing wells/total wells (DLD-1 cells [2]; DLD-1, 3-day treatment, 1.0 μM, 100 cells per well): 95/96
- Sphere-containing wells/total wells (DLD-1 cells [2]; DLD-1, 4-day treatment, 0.1 μM, 1 cell per well): 55/96
- Sphere-containing wells/total wells (DLD-1 cells [2]; DLD-1, 4-day treatment, 0.1 μM, 10 cells per well): 95/96
- Sphere-containing wells/total wells (DLD-1 cells [2]; DLD-1, 4-day treatment, 0.1 μM, 100 cells per well): 96/96
- Sphere-containing wells/total wells (DLD-1 cells [2]; DLD-1, 4-day treatment, 0.3 μM, 1 cell per well): 65/96
- Sphere-containing wells/total wells (DLD-1 cells [2]; DLD-1, 4-day treatment, 0.3 μM, 10 cells per well): 94/96
- Sphere-containing wells/total wells (DLD-1 cells [2]; DLD-1, 4-day treatment, 0.3 μM, 100 cells per well): 96/96
- Sphere-containing wells/total wells (DLD-1 cells [2]; DLD-1, 4-day treatment, 1.0 μM, 1 cell per well): 45/96
- Sphere-containing wells/total wells (DLD-1 cells [2]; DLD-1, 4-day treatment, 1.0 μM, 10 cells per well): 95/96
- Sphere-containing wells/total wells (DLD-1 cells [2]; DLD-1, 4-day treatment, 1.0 μM, 100 cells per well): 96/96
- Sphere-containing wells/total wells (HCT116 cells [3]; HCT116, 3-day treatment, 0.1μM, 1 cell per well): 62/96
- Sphere-containing wells/total wells (HCT116 cells [3]; HCT116, 3-day treatment, 0.1μM, 10 cells per well): 96/96
- Sphere-containing wells/total wells (HCT116 cells [3]; HCT116, 3-day treatment, 0.1μM, 100 cells per well): 96/96
- Sphere-containing wells/total wells (HCT116 cells [3]; HCT116, 3-day treatment, 0.3μM, 1 cell per well): 65/96
- Sphere-containing wells/total wells (HCT116 cells [3]; HCT116, 3-day treatment, 0.3μM, 10 cells per well): 96/96
- Sphere-containing wells/total wells (HCT116 cells [3]; HCT116, 3-day treatment, 0.3μM, 100 cells per well): 96/96
- Sphere-containing wells/total wells (HCT116 cells [3]; HCT116, 3-day treatment, 1.0μM, 1 cell per well): 60/96
- Sphere-containing wells/total wells (HCT116 cells [3]; HCT116, 3-day treatment, 1.0μM, 10 cells per well): 96/96
- Sphere-containing wells/total wells (HCT116 cells [3]; HCT116, 3-day treatment, 1.0μM, 100 cells per well): 96/96
- Sphere-containing wells/total wells (HCT116 cells [3]; HCT116, 4-day treatment, 0.1μM, 1 cell per well): 59/96
- Sphere-containing wells/total wells (HCT116 cells [3]; HCT116, 4-day treatment, 0.1μM, 10 cells per well): 96/96
- Sphere-containing wells/total wells (HCT116 cells [3]; HCT116, 4-day treatment, 0.1μM, 100 cells per well): 96/96
- Sphere-containing wells/total wells (HCT116 cells [3]; HCT116, 4-day treatment, 0.3μM, 1 cell per well): 60/96
- Sphere-containing wells/total wells (HCT116 cells [3]; HCT116, 4-day treatment, 0.3μM, 10 cells per well): 96/96
- Sphere-containing wells/total wells (HCT116 cells [3]; HCT116, 4-day treatment, 0.3μM, 100 cells per well): 96/96
- Sphere-containing wells/total wells (HCT116 cells [3]; HCT116, 4-day treatment, 1.0μM, 1 cell per well): 56/96
- Sphere-containing wells/total wells (HCT116 cells [3]; HCT116, 4-day treatment, 1.0μM, 10 cells per well): 96/96
- Sphere-containing wells/total wells (HCT116 cells [3]; HCT116, 4-day treatment, 1.0μM, 100 cells per well): 96/96
- tumour formation (DLD-1 cells [4]): not
